Source: ChEMBL document CHEMBL1155271, “Synthesis, crystal structures and antibacterial activity studies of aza-derivatives of phytoalexin from cotton plant--gossypol” (2009)
≈ marks a conversion by molar mass, not a printed value. Calls of active or inactive are those of the source. The rule behind the calls is not given here.

Legend:
Assay type in all cases: functional
Staphylococcus aureus [1] = experiment: Antimicrobial activity against Staphylococcus aureus ATCC 6538 after 18 hrs by twofold dilution technique; conditions: ATCC 6538, 18 h
Staphylococcus aureus [2] = experiment: Antimicrobial activity against Staphylococcus aureus NCTC 4163 after 18 hrs by twofold dilution technique; conditions: NCTC 4163, 18 h
Staphylococcus aureus [3] = experiment: Antimicrobial activity against Staphylococcus aureus ATCC 25923 at 400 ug after 18 hrs by disk diffusion method; conditions: ATCC 25923, 18 h, read-out: DIZ
Staphylococcus aureus [4] = experiment: Antimicrobial activity against methicillin-resistant Staphylococcus aureus 143/6 by twofold dilution technique
Staphylococcus aureus [5] = experiment: Antimicrobial activity against Methicillin susceptible Staphylococcus aureus 212/7 by twofold dilution technique
Staphylococcus aureus [6] = experiment: Antimicrobial activity against methicillin-resistant Staphylococcus aureus 218/7 by twofold dilution technique
Staphylococcus aureus [7] = experiment: Antimicrobial activity against methicillin-resistant Staphylococcus aureus 141/6 by twofold dilution technique
Staphylococcus aureus [8] = experiment: Antimicrobial activity against Methicillin susceptible Staphylococcus aureus 213/7 by twofold dilution technique
Staphylococcus aureus [9] = experiment: Antimicrobial activity against Staphylococcus aureus ATCC 25923 after 18 hrs by twofold dilution technique; conditions: ATCC 25923, 18 h
Bacillus subtilis [10] = experiment: Antimicrobial activity against Bacillus subtilis ATCC 6633 at 400 ug after 18 hrs by disk diffusion method; conditions: ATCC 6633, 18 h, read-out: DIZ
Staphylococcus aureus [11] = experiment: Antimicrobial activity against methicillin-resistant Staphylococcus aureus 200/7 by twofold dilution technique
Enterococcus hirae [12] = experiment: Antimicrobial activity against Enterococcus hirae ATCC 10541 after 18 hrs by twofold dilution technique; conditions: ATCC 10541, 18 h
Staphylococcus aureus [13] = experiment: Antimicrobial activity against Methicillin susceptible Staphylococcus aureus 238/7 by twofold dilution technique
Staphylococcus aureus [14] = experiment: Antimicrobial activity against Methicillin susceptible Staphylococcus aureus 206/7 by twofold dilution technique
Staphylococcus aureus [15] = experiment: Antimicrobial activity against Staphylococcus aureus ATCC 6538 at 400 ug after 18 hrs by disk diffusion method; conditions: ATCC 6538, 18 h, read-out: DIZ
Micrococcus luteus [16] = experiment: Antimicrobial activity against Micrococcus luteus ATCC 10240 by twofold dilution technique
Staphylococcus aureus [17] = experiment: Antimicrobial activity against Methicillin susceptible Staphylococcus aureus 243/7 by twofold dilution technique
Staphylococcus aureus [18] = experiment: Antimicrobial activity against Methicillin susceptible Staphylococcus aureus 208/7 by twofold dilution technique
[19] = tested on: Staphylococcus epidermidis; experiment: Antimicrobial activity against Staphylococcus epidermidis ATCC 12228 at 400 ug after 18 hrs by disk diffusion method; conditions: ATCC 12228, 18 h, read-out: DIZ
Staphylococcus aureus [20] = experiment: Antimicrobial activity against Methicillin susceptible Staphylococcus aureus 207/7 by twofold dilution technique
[21] = tested on: Staphylococcus epidermidis; experiment: Antimicrobial activity against Staphylococcus epidermidis ATCC 12228 by twofold dilution technique
Staphylococcus aureus [22] = experiment: Antimicrobial activity against Methicillin susceptible Staphylococcus aureus 239/7 by twofold dilution technique
Enterococcus hirae [23] = experiment: Antimicrobial activity against Enterococcus hirae ATCC 10541 at 400 ug after 18 hrs by disk diffusion method
Staphylococcus aureus [24] = experiment: Antimicrobial activity against Methicillin susceptible Staphylococcus aureus 242/7 by twofold dilution technique
Staphylococcus aureus [25] = experiment: Antimicrobial activity against methicillin-resistant Staphylococcus aureus 217/7 by twofold dilution technique
Bacillus cereus [26] = experiment: Antimicrobial activity against Bacillus cereus ATCC 11778 at 400 ug after 18 hrs by disk diffusion method; conditions: ATCC 11778, 18 h, read-out: DIZ
Bacillus cereus [27] = experiment: Antimicrobial activity against Bacillus cereus ATCC 11778 after 18 hrs by twofold dilution technique; conditions: ATCC 11778, 18 h
Staphylococcus aureus [28] = experiment: Antimicrobial activity against methicillin-resistant Staphylococcus aureus 140/6 by twofold dilution technique
Staphylococcus aureus [29] = experiment: Antimicrobial activity against Staphylococcus aureus ATCC 29213 at 400 ug after 18 hrs by disk diffusion method; conditions: ATCC 29213, 18 h, read-out: DIZ
Staphylococcus aureus [30] = experiment: Antimicrobial activity against methicillin-resistant Staphylococcus aureus 144/6 by twofold dilution technique
Staphylococcus aureus [31] = experiment: Antimicrobial activity against methicillin-resistant Staphylococcus aureus 136/6 by twofold dilution technique
Staphylococcus aureus [32] = experiment: Antimicrobial activity against methicillin-resistant Staphylococcus aureus 236/7 by twofold dilution technique
Micrococcus luteus [33] = experiment: Antimicrobial activity against Micrococcus luteus ATCC 10240 at 400 ug after 18 hrs by disk diffusion method; conditions: ATCC 10240, 18 h, read-out: DIZ
Staphylococcus aureus [34] = experiment: Antimicrobial activity against Staphylococcus aureus NCTC 4163 at 400 ug after 18 hrs by disk diffusion method; conditions: NCTC 4163, 18 h, read-out: DIZ
Staphylococcus aureus [35] = experiment: Antimicrobial activity against Methicillin susceptible Staphylococcus aureus 237/7 by twofold dilution technique
Bacillus subtilis [36] = experiment: Antimicrobial activity against Bacillus subtilis ATCC 6633 after 18 hrs by twofold dilution technique; conditions: ATCC 6633, 18 h
Micrococcus luteus [37] = experiment: Antimicrobial activity against Micrococcus luteus ATCC 9341 at 400 ug after 18 hrs by disk diffusion method
Micrococcus luteus [38] = experiment: Antimicrobial activity against Micrococcus luteus ATCC 9341 after 18 hrs by twofold dilution technique; conditions: ATCC 9341, 18 h
Staphylococcus aureus [39] = experiment: Antimicrobial activity against Staphylococcus aureus ATCC 29213 after 18 hrs by twofold dilution technique; conditions: ATCC 29213, 18 h
Staphylococcus aureus [40] = experiment: Antimicrobial activity against methicillin-resistant Staphylococcus aureus 146/6 by twofold dilution technique

| Compound | MIC (Staphylococcus aureus [1]) [µg/mL] | MIC (Staphylococcus aureus [2]) [µg/mL] | zone of inhibition at 400 µg/disc (Staphylococcus aureus [3]) [mm] | MIC (Staphylococcus aureus [4]) [µg/mL] | MIC (Staphylococcus aureus [5]) [µg/mL] | MIC (Staphylococcus aureus [6]) [µg/mL] | MIC (Staphylococcus aureus [7]) [µg/mL] | MIC (Staphylococcus aureus [8]) [µg/mL] | MIC (Staphylococcus aureus [9]) [µg/mL] | zone of inhibition at 400 µg/disc (Bacillus subtilis [10]) [mm] | MIC (Staphylococcus aureus [11]) [µg/mL] | MIC (Enterococcus hirae [12]) [µg/mL] | MIC (Staphylococcus aureus [13]) [µg/mL] | MIC (Staphylococcus aureus [14]) [µg/mL] | zone of inhibition at 400 µg/disc (Staphylococcus aureus [15]) [mm] | MIC (Micrococcus luteus [16]) [µg/mL] | MIC (Staphylococcus aureus [17]) [µg/mL] | MIC (Staphylococcus aureus [18]) [µg/mL] | zone of inhibition at 400 µg/disc [19] [mm] | MIC (Staphylococcus aureus [20]) [µg/mL] | also measured |
| --- | --- | --- | --- | --- | --- | --- | --- | --- | --- | --- | --- | --- | --- | --- | --- | --- | --- | --- | --- | --- | --- |
| COc1ccc2[nH]cc(CCN/C=C3\C(=O)C(O)=C(C(C)C)c4cc(C)c(-c5c(C)cc6c(c5O)/C(=C/NCCc5c[nH]c7ccc(OC)cc57)C(=O)C(O)=C6C(C)C)c(O)c43)c2c1 | 50 (≈ 57.9 µM) | 100 (≈ 116 µM) | 15 | 100 (≈ 116 µM) | 100 (≈ 116 µM) | 100 (≈ 116 µM) | 100 (≈ 116 µM) | 100 (≈ 116 µM) | 100 (≈ 116 µM) | 15 | 100 (≈ 116 µM) | 100 (≈ 116 µM) | 100 (≈ 116 µM) | 100 (≈ 116 µM) | 16 | 100 (≈ 116 µM) | 100 (≈ 116 µM) | 100 (≈ 116 µM) | 15 | 200 (≈ 232 µM) | MIC [21]: 200 µg/mL (≈ 232 µM); MIC (Staphylococcus aureus [22]): 100 µg/mL (≈ 116 µM); zone of inhibition at 400 µg/disc (Enterococcus hirae [23]; ATCC 10541, 18 h, read-out: DIZ): 14 mm; MIC (Staphylococcus aureus [24]): 50 µg/mL (≈ 57.9 µM); MIC (Staphylococcus aureus [25]): 200 µg/mL (≈ 232 µM); zone of inhibition at 400 µg/disc (Bacillus cereus [26]): 15 mm; MIC (Bacillus cereus [27]): 100 µg/mL (≈ 116 µM); MIC (Staphylococcus aureus [28]): 100 µg/mL (≈ 116 µM); zone of inhibition at 400 µg/disc (Staphylococcus aureus [29]): 15 mm; MIC (Staphylococcus aureus [30]): 200 µg/mL (≈ 232 µM); MIC (Staphylococcus aureus [31]): 100 µg/mL (≈ 116 µM); MIC (Staphylococcus aureus [32]): 100 µg/mL (≈ 116 µM); zone of inhibition at 400 µg/disc (Micrococcus luteus [33]): 15 mm; zone of inhibition at 400 µg/disc (Staphylococcus aureus [34]): 16 mm; MIC (Staphylococcus aureus [35]): 100 µg/mL (≈ 116 µM); MIC (Bacillus subtilis [36]): 200 µg/mL (≈ 232 µM); zone of inhibition at 400 µg/disc (Micrococcus luteus [37]; ATCC 9341, 18 h, read-out: DIZ): 11 mm; MIC (Micrococcus luteus [38]): 100 µg/mL (≈ 116 µM); MIC (Staphylococcus aureus [39]): 50 µg/mL (≈ 57.9 µM); MIC (Staphylococcus aureus [40]): 100 µg/mL (≈ 116 µM) |
| COCCOC(CN/N=C/c1c(O)c(O)c(C(C)C)c2cc(C)c(-c3c(C)cc4c(C(C)C)c(O)c(O)c(/C=N/NCC(OCCOC)OCCOC)c4c3O)c(O)c12)OCCOC | 400 (≈ 445 µM) | 400 (≈ 445 µM) | 12 | > 400 | > 400 | > 400 | 400 (≈ 445 µM) | 400 (≈ 445 µM) | 400 (≈ 445 µM) | 12 | > 400 | 400 (≈ 445 µM) | 400 (≈ 445 µM) | 400 (≈ 445 µM) | 11 | 400 (≈ 445 µM) | > 400 | > 400 | 13 | > 400 | MIC [21]: > 400 µg/mL; MIC (Staphylococcus aureus [22]): 400 µg/mL (≈ 445 µM); diameter of the inhibition zone (DIZ) (Enterococcus hirae [23]): inactive; MIC (Staphylococcus aureus [24]): 200 µg/mL (≈ 222 µM); MIC (Staphylococcus aureus [25]): > 400 µg/mL; zone of inhibition at 400 µg/disc (Bacillus cereus [26]): 12 mm; MIC (Bacillus cereus [27]): 400 µg/mL (≈ 445 µM); MIC (Staphylococcus aureus [28]): 400 µg/mL (≈ 445 µM); zone of inhibition at 400 µg/disc (Staphylococcus aureus [29]): 11 mm; MIC (Staphylococcus aureus [30]): 400 µg/mL (≈ 445 µM); MIC (Staphylococcus aureus [31]): 400 µg/mL (≈ 445 µM); MIC (Staphylococcus aureus [32]): 400 µg/mL (≈ 445 µM); zone of inhibition at 400 µg/disc (Micrococcus luteus [33]): 14 mm; zone of inhibition at 400 µg/disc (Staphylococcus aureus [34]): 11 mm; MIC (Staphylococcus aureus [35]): 400 µg/mL (≈ 445 µM); MIC (Bacillus subtilis [36]): > 400 µg/mL; diameter of the inhibition zone (DIZ) (Micrococcus luteus [37]): inactive; MIC (Micrococcus luteus [38]): 400 µg/mL (≈ 445 µM); MIC (Staphylococcus aureus [39]): 400 µg/mL (≈ 445 µM); MIC (Staphylococcus aureus [40]): 400 µg/mL (≈ 445 µM) |
